Measurements: the NIST ThermoML archive (doi:10.1021/je0202073)

What was measured:
[1] = Liquid; for mass density: 298.15 K, 101.33 kPa, vibrating tube; for Normal boiling temperature: Ebulliometric method (Recirculating still)
[2] = refractive index (Na D-line) (dimensionless); settings: 303.15 K; 101.33 kPa; Liquid; Abbe refractometer
[3] = xn = mol fraction of the nth substance listed; settings: 101.3 kPa, Liquid
[4] = excess molar enthalpy (molar enthalpy of mixing); xn = mol fraction of the nth substance listed; settings: 101.3 kPa, Liquid, Calvet calorimetry

CCOC(C)=O [ethyl acetate]
Settings	Normal boiling temperature [°C]	mass density [kg/m3]	refractive index
[1]	77.10	894.44	–
[2]	–	–	1.3675

CCOC(=O)CC [ethyl propanoate] + CC(C)(C)O
Settings	excess molar enthalpy [kcal/mol]	excess molar volume [m3/mol]
[3], 303.15 K, x1 = 0.0345	–	7.6e-07
[3], 303.15 K, x1 = 0.0905	–	2.12e-06
[3], 303.15 K, x1 = 0.1495	–	3.31e-06
[3], 303.15 K, x1 = 0.1943	–	4.02e-06
[3], 303.15 K, x1 = 0.2497	–	4.82e-06
[3], 303.15 K, x1 = 0.2987	–	5.39e-06
[3], 303.15 K, x1 = 0.3496	–	5.77e-06
[3], 303.15 K, x1 = 0.3997	–	6.19e-06
[3], 303.15 K, x1 = 0.4466	–	6.39e-06
[3], 303.15 K, x1 = 0.4486	–	6.45e-06
[3], 303.15 K, x1 = 0.4998	–	6.48e-06
[3], 303.15 K, x1 = 0.5006	–	6.53e-06
[3], 303.15 K, x1 = 0.5163	–	6.52e-06
[3], 303.15 K, x1 = 0.5188	–	6.51e-06
[3], 303.15 K, x1 = 0.5569	–	6.47e-06
[3], 303.15 K, x1 = 0.5646	–	6.42e-06
[3], 303.15 K, x1 = 0.5964	–	6.31e-06
[3], 303.15 K, x1 = 0.6368	–	6.07e-06
[3], 303.15 K, x1 = 0.6458	–	6e-06
[3], 303.15 K, x1 = 0.7044	–	5.45e-06
[3], 303.15 K, x1 = 0.7533	–	4.87e-06
[3], 303.15 K, x1 = 0.8103	–	4.04e-06
[3], 303.15 K, x1 = 0.858	–	3.25e-06
[3], 303.15 K, x1 = 0.9096	–	2.24e-06
[3], 303.15 K, x1 = 0.9432	–	1.54e-06
[3], 318.15 K, x1 = 0.0694	–	1.85e-06
[3], 318.15 K, x1 = 0.1223	–	2.99e-06
[3], 318.15 K, x1 = 0.1759	–	3.87e-06
[3], 318.15 K, x1 = 0.2144	–	4.51e-06
[3], 318.15 K, x1 = 0.2746	–	5.29e-06
[3], 318.15 K, x1 = 0.3188	–	5.79e-06
[3], 318.15 K, x1 = 0.3648	–	6.16e-06
[3], 318.15 K, x1 = 0.4303	–	6.43e-06
[3], 318.15 K, x1 = 0.4669	–	6.5e-06
[3], 318.15 K, x1 = 0.5429	–	6.53e-06
[3], 318.15 K, x1 = 0.596	–	6.43e-06
[3], 318.15 K, x1 = 0.6662	–	6.05e-06
[3], 318.15 K, x1 = 0.7319	–	5.43e-06
[3], 318.15 K, x1 = 0.8088	–	4.45e-06
[3], 318.15 K, x1 = 0.8557	–	3.75e-06
[3], 318.15 K, x1 = 0.9183	–	2.28e-06
[4], 299.15 K, x1 = 0.0555	0.0801	–
[4], 299.15 K, x1 = 0.1332	0.183	–
[4], 299.15 K, x1 = 0.2151	0.271	–
[4], 299.15 K, x1 = 0.2979	0.346	–
[4], 299.15 K, x1 = 0.3767	0.397	–
[4], 299.15 K, x1 = 0.4164	0.417	–
[4], 299.15 K, x1 = 0.4497	0.428	–
[4], 299.15 K, x1 = 0.477	0.432	–
[4], 299.15 K, x1 = 0.5513	0.43	–
[4], 299.15 K, x1 = 0.6351	0.412	–
[4], 299.15 K, x1 = 0.73	0.354	–
[4], 299.15 K, x1 = 0.8294	0.257	–
[4], 299.15 K, x1 = 0.9242	0.132	–
[4], 318.15 K, x1 = 0.051	0.0699	–
[4], 318.15 K, x1 = 0.1094	0.14	–
[4], 318.15 K, x1 = 0.1681	0.209	–
[4], 318.15 K, x1 = 0.2276	0.271	–
[4], 318.15 K, x1 = 0.2892	0.328	–
[4], 318.15 K, x1 = 0.3477	0.367	–
[4], 318.15 K, x1 = 0.4028	0.395	–
[4], 318.15 K, x1 = 0.4347	0.41	–
[4], 318.15 K, x1 = 0.4528	0.415	–
[4], 318.15 K, x1 = 0.4786	0.424	–
[4], 318.15 K, x1 = 0.5297	0.425	–
[4], 318.15 K, x1 = 0.5872	0.419	–
[4], 318.15 K, x1 = 0.6499	0.398	–
[4], 318.15 K, x1 = 0.7164	0.36	–
[4], 318.15 K, x1 = 0.7897	0.3	–
[4], 318.15 K, x1 = 0.8641	0.217	–
[4], 318.15 K, x1 = 0.9381	0.114	–

CCOC(=O)CC [ethyl propanoate]
Settings	Normal boiling temperature [°C]	mass density [kg/m3]	refractive index
[1]	98.76	883.95	–
[2]	–	–	1.3791
